Several values for one entry are separate records, joined by “and”; a condition that tells them apart may be missing. Equal entries are not always repeated.
Experiments:
[1] = test system: TNF-alpha treated adipocytes; experiment: Radioactive glucose uptake in TNF-alpha treated insulin resistant adipocytes; assay type: cell-based; conditions: resveratrol 5 μM or 15 μM; roziglitazone 4 μM
[2] = target: T1, SIRT1 deacetylase (BIOMOL) (Homo sapiens, UniProt Q96EB6); experiment: High-throughput SIRT1 screening protocol (Fluor de Lys-SIRT1, 384 well); assay type: biochemical; conditions: positive controls; roughly 50 μM, 200 μM NAD+, 5 μM Fluor de Lys-SIRT1
T1 construct: purchased BIOMOL
T1 sequence (Q96EB6 1-747): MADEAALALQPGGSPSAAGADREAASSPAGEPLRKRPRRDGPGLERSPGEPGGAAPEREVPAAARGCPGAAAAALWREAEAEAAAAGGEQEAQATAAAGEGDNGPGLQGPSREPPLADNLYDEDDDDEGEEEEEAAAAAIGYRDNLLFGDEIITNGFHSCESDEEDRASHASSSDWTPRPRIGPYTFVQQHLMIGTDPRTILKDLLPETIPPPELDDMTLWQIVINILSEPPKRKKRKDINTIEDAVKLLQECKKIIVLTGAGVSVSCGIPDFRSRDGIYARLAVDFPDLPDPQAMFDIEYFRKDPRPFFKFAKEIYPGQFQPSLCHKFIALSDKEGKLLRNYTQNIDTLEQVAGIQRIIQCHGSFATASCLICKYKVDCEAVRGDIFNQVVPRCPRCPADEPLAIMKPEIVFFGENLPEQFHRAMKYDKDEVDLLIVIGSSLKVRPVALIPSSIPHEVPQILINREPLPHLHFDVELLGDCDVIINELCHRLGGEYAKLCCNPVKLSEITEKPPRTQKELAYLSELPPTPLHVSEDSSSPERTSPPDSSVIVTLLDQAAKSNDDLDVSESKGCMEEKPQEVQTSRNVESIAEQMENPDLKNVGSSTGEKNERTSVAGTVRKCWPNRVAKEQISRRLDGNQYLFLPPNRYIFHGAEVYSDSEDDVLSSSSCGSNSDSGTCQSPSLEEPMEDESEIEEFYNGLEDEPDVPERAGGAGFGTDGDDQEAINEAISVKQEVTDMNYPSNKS
Description: The reaction mixture contains (final): 0.5 units/reaction SIRT1 deacetylase (BIOMOL); 200 μM NAD^+; 5 μM Fluor de Lys-SIRT1 substrate (BIOMOL); buffer (25 mM Tris/Cl, pH 8.0, 137 mM NaCl, 2.7 mM KCl, 1 mM MgCl2, and 1 mg/ml BSA). In addition, a reaction mixture containing no enzyme was made so that each well receiving compound has a corresponding “no enzyme control” well. Reactions were performed in black 384 well plates (NUNC) in a final volume of 25 μl/well.
The reactions were started by combining enzyme and substrate in a reaction mixture immediately prior to aliquoting in plates (or substrate only for “no enzyme control” plates). Mixture were aliquoted to plates using Biotek μFill (Biotek Instruments). Control mixtures were manually added to designated wells. A library compound was added at a desired concentration by pin transfer to both “with enzyme” and “no enzyme” plates. Compounds were added in at least triplicate (with enzyme reaction in duplicate and no enzyme controls) at a final concentration of roughly 50 μM. The plates were incubated at 37° C. for 30-60 minutes. Then 25 μl of 1× Developer II (BIOMOL) plus 2 mM nicotinamide were added to all wells to stop the reactions. The reactions were left for at least 30 minutes at 37° C. for the signal to develop. The plates were read in a microplate-reading fluorometer capable of excitation at a wavelength in the range of 350-380 nm and detection of emitted light in the range of 440-460 nm. A read time of 0.1 sec per well was used.

[3] = test system: C. elegans; experiment: C. elegans fat accumulation, Nile Red staining; assay type: in vivo; conditions: for Concentration as low as which fat accumulation is reduced: 10, 50 and 100 μM tested
Description: Fat accumulation was visualized with Nile Red staining, as described further below and in Ashrafi K, et al. Nature 421:268-27 (2003).
Synchronized starved L1 worms were grown in the presence of Nile Red. Strains were grown on NGM plates at 25° C. for approximately 48 hours until the young adult stage was reached. 20-30 young adult worms were then washed 2× with M9 buffer and transferred to new NGM/Nile red experimental plates that contained either OP50 or HTT5 E. coli carrying the L4440 RNAi control vector.
Young adults were transferred to plates containing the appropriate vector, Nile Red stain and drug then maintained at 25° C.
Nile Red: Nile Red Powder (Sigma #N-3013) was dissolved in acetone at 500 μg/ml, diluted in 1× Phosphate Buffered Saline (PBS) including appropriate drug and applied to surface of Nematode Growth Media (NGM) plates previously seeded with OP50 or RNAi bacteria, at a final concentration of 0.05 μg/ml. Fat content was monitored and recorded by fluorescence microscopy.

[4] = test system: S. cerevisiae; experiment: Yeast replicative lifespan by micro-manipulation; assay type: cell-based; conditions: 10 μM
Description: Average lifespan for wild type, 22.9 generations, quercetin, 23.4; piceatannol.
Lifespan measurements were performed using PSY316AT MATα as previously described^35. All compounds for lifespan analyses were dissolved in 95% ethanol and plates were dried and used within 24 hours. Prior to lifespan analysis, cells were pre-incubated on their respective media for at least 15 hours. Following transfer to a new plate, cells were equilibrated on the medium for a minimum of 4 hours prior to micro-manipulating them. At least 30 cells were examined per experiment and each experiment was performed at least twice. Statistical significance of lifespan differences was determined using the Wilcoxon rank sum test. Differences are stated to be significant when the confidence is higher than 95%.

[5] = target: T2, recombinant human SIRT1 (Homo sapiens, UniProt Q96EB6); experiment: SIRT1 fluorescent deacetylation assay (p53-382 acetylated peptide); assay type: biochemical
T2 sequence (Q96EB6 1-747): T1 sequence (Q96EB6 1-747)
Description: To identify compounds that modulate SIRT1 activity, a number of small molecule libraries were screened using a fluorescent deacetylation assay in 96-well plates^26. The substrate used in the assay was a fluorogenic peptide based on the sequence encompassing the p53-K382 acetylation site, a known target of SIRT1 in vivo^20,21,27. […] The small molecule libraries included analogues of nicotinamide, ε-acetyl lysine, NAD^+, nucleotides, nucleotide analogues and purinergic ligands.
From 0.1 to 1 μg of SIRT1 and 1.5 μg of Sir2 were used per deacetylation assay (in 50 μl total reaction) as previously described^26. SIRT1 assays and certain of those for Sir2 employed the p53-382 acetylated substrate (‘Fluor de Lys-SIRT1’, BIOMOL) rather than FdL.
Themed compound libraries (BIOMOL) were used for primary and secondary screening. Most polyphenol compounds were dissolved at 10 mM in dimethylsulfoxide (DMSO) on the day of the assay. For water soluble compounds and negative controls, 1% v/v DMSO was added to the assay. In vitro fluorescence assay results were read in white ½-volume 96-well microplates (Corning Costar 3693) with a CytoFluor™ II fluorescence plate reader (PerSeptive Biosystems, Ex. 360 nm, Em. 460 nm, gain=85). […] Unless otherwise indicated all initial rate measurements were means of three or more replicates, obtained with single incubation times, at which point 5% or less of the substrate initially present had been deacetylated. Calculation of net fluorescence increases included subtraction of a blank value, which in the case of Sir2 was obtained by omitting the enzyme from the reaction and in the case of SIRT1 by adding an inhibitor (200 μM suramin or 1 mM nicotinamide) to the reaction prior to the acetylated substrate. A number of the polyphenols partially quenched the fluorescence produced in the assay and correction factors were obtained by determining the fluorescence increase due to a 3 μM spike of an FdL deacetylated standard (BIOMOL, catalog number KI-142). All error bars represent the standard error of the mean.
All SIRT1 rate measurements used in the calculation of “Ratio to Control Rate” were obtained with 25 μM NAD^+ and 25 μM p53-382 acetylated peptide substrate were performed as described above and in K. T. Howitz et al. Nature (2003) 425: 191. All ratio data were calculated from experiments in which the total deacetylation in the control reaction was 0.25-1.25 μM peptide or 1-5% of the initial concentration of acetylated peptide.

[6] = test system: D. melanogaster; experiment: D. melanogaster survival (lifespan) assay; assay type: in vivo
Description: Survival assays were conducted independently with adult D. melanogaster in two laboratories. In the first laboratory, all trials used an yw marked wild-type strain. Larvae were reared on standard cornmeal-sugar-yeast (CSY) agar diet (cornmeal 5%, sucrose 10.5%, SAF yeast 2%, and agar 0.7%). Newly eclosed adults were placed in 1 L demography cages with approximately 75 males and 75 females. Three to four replicate 1 L demography cages were used for each treatment group in each trial. Every two days, dead flies were removed and scored, and food vials were replenished. Food vials contained cornmeal-sugar-yeast diet with SAF yeast as either 2% or 3% by weight. Test compounds in 100 μl of EtOH (or blank EtOH in controls) were mixed into melted aliquots of the adult food media to make a final concentration of 0, 10 or 100 μM. Fresh stock solutions and adult media were prepared weekly. In the second laboratory, lifespan trials were conducted with the wild type strain Canton-S, dSir2^4.5 and dSir2^5.26 (S. Smolik, University of Oregon), dSir2^17 (S. Astrom, Stockholm University, Sweden), and dSir2^KG00871 (Drosophila Stock Center, Bloomington, Ind.). Larvae for all tests were reared on standard cornmeal-sugar-yeast diet. Newly eclosed adults were incubated in plastic shell vials containing 5 ml of 15% sugar-yeast diet (15% SY) or 5% sugar-yeast (5% SY) diet (15% SY: 15% yeast, 15% sucrose, 2% agar; 5% SY: 5% yeast, 5% sucrose, 2% agar as per Ref.^20). In all trials, ˜20 males with ˜20 females were placed into each of 10 vials/treatment group. Every two days, flies were passed into new vials and dead flies were counted. […] Final compound concentrations were 0, 10, 100 or 200 μM. Fresh stock solution and adult media was prepared weekly.

[7] = test system: AMPK at Thr172 and ACC at serine 79; experiment: AMPK and ACC phosphorylation Western in CHO-HIR cells; assay type: cell-based; conditions: AICAR 500 μM; resveratrol 12.5, 25 or 50 μM; 30 minutes
Description: Cells were harvested after 30 minutes and lysates were immediately boiled in SDS and subjected to Western analysis with site-specific antibodies. Phosphorylation of AMPK at Thr172 indicates activation of the kinase. Active AMPK phosphorylates and inactivates ACC at serine 79.

[8] = test system: HepG2 cells; experiment: Oxidation of 14C-palmitate (14C-CO2 production); assay type: cell-based; conditions: resveratrol 10 μM, AICAR 500 μM, metformin 1 mM; 4 hours; vehicle 1
Description: (§1) Oxidation of ^14C-palmitate to acid-soluble products (modified from […] cells ([…]. and B. E. Kemp, J Biol Chem (1992) 267(5): 2864-7) and HepG2 cells were maintained as described above. Cells (10^6 cells/T25) were seeded in a T25 flask one day prior to the experiment. […] At the end of incubation, the cap of each […]per and a 1'×1.5'' Whatman filter paper soaked with 250 μl 2N NaOH. Each flask was injected with 2 ml of 6N HCL, placed in a horizontal position for 10 minutes and left standing overnight. […] The experiment was repeated three times.

[9] = test system: H4IIEC3 cells; experiment: Oxidation of 14C-palmitate (14C-CO2 production); assay type: cell-based; conditions: resveratrol 10 μM, AICAR 500 μM, metformin 1 mM; 4 hours; vehicle 1
Description: as §1

[10] = target: p53-382 acetylated peptide substrate ('Fluor de Lys-SIRT1', BIOMOL) (human) (UniProt P04637)

roziglitazone
Insulin sensitivity (radioactive glucose uptake) [1]: increases the uptake of radioactive glucose

Oc1cc(O)cc(/C=C/c2ccccc2)c1 [Pinosylvin, 3,5-Dihydroxy-trans-stilbene]
Activation of SIRT1 [2]: 3.28 fold

O=c1c(O)c(-c2ccc(O)c(O)c2)oc2cc(O)cc(O)c12 [quercetin, 3,5,7,3′,4′-Pentahydroxyflavone]
Fat mobilization ([3]; 100 μM, 48 hours): stimulate fat mobilization
Concentration as low as which fat accumulation is reduced ([3]; 48 hours): 10 µM
Effect on lifespan (in words) [4]: no significant effect

NC(=O)c1cccnc1 [nicotinamide]
Vmax decrease ([5]; 50 μM nicotinamide, absence of resveratrol, two determinations (varying NAD+ or p53-382 peptide)): 30% and 36%
Fat accumulation ([3]; 0, 1 or 10 mM nicotinamide, overnight): concentration dependent increase in fat accumulation

O=c1c(O)c(-c2ccc(O)c(O)c2)oc2cc(O)ccc12 [fisetin, 3,7,3′,4′-Tetrahyddroxyflavone]
Longevity under restricted diet ([6]; restricted diet): neither resveratrol nor fisetin further increased longevity
Lifespan extension ([6]; wild type strains, males and females, independent tests, maximum): up to 23%
Fat mobilization ([3]; 100 μM, 48 hours): stimulate fat mobilization
Concentration as low as which fat accumulation is reduced ([3]; 48 hours): 10 µM

NC(=O)c1ncn([C@@H]2O[C@H](CO)[C@@H](O)[C@H]2O)c1N [AICAR, 5-aminoimidazole-4-carboxamide-1-beta-D-ribofuranoside]
Phosphorylation of AMPK and ACC [7]: stimulates phosphorylation of AMPK and ACC
14C-CO2 production (nmol/hr/10^6 cells) (Fold Effect) [8]: 5 fold
14C-CO2 production (nmol/hr/10^6 cells) (Fold Effect) [9]: 2.3 fold

COc1ccc(/C=C/c2cc(O)cc(O)c2)cc1 [BML-233, 3,5-Dihydroxy-4′-methoxy-trans-stilbene]
Activation of SIRT1 [2]: 2.1 fold

His6-tagged recombinant SIRT1 (from UniProt Q96EB6) (enzyme)
Km for the p53-382 acetylated peptide (SIRT1 initial deacetylation rate, fluorescence) [10]: 64 µM

CN(C)C(=N)N=C(N)N [Metformin]
14C-CO2 production (nmol/hr/10^6 cells) (Fold Effect) [8]: 3.5 fold
14C-CO2 production (nmol/hr/10^6 cells) (Fold Effect) [9]: 2 fold

Oc1cc(O)cc(/C=C/c2ccc(O)c(O)c2)c1 [piceatannol, 3,5,3′,4′-Tetrahydroxy-trans-stilbene]
Stimulation of SIRT1 activity ([5]; initial screen (Table 1, 100 μM)): eight
Fat mobilization ([3]; 100 μM, 48 hours): stimulate fat mobilization
Effect on lifespan (in words) [4]: no significant effect

C(=C/c1ccccc1)/c1ccccc1 [cis-stilbene, cis-Stilbene]
Fat staining ([3]; 100 μM, 48 hours, control 2.5% v/v DMSO): No significant effect

— patent publication US20060276416A1, “Methods and compositions for treating flushing and drug induced weight gain” (Sirtris Pharmaceuticals, Inc., priority 2005, published 2006)
